# Tested on: S288C and HGT1 or PTR2 modified strains (Hgt1p, Ptr2p)
# Assay: Evaluation of γ-Glu-Val-Gly uptake activity of HGT1 or PTR2 modified strains
# Assay type: cell-based, Saccharomyces cerevisiae
# Conditions: 100 ppm γ-Glu-Val-Gly in SD medium, 7 hours
# Procedure: The influence of Hgt1p, which has been considered to be a GSH specific transporter, and Ptr2p, which is a peptide transporter, on γ-Glu-Val-Gly accumulation was evaluated as follows.
# Each strain was cultivated in 50-ml tubes containing 5 ml of SD medium with 100 ppm γ-Glu-Val-Gly as a final concentration. Tubes were inoculated by overnight culture of the corresponding strain at initial OD600=0.5, and placed in a rotation shaker at 240 rpm, 30° C. The cultivation time was 7 hours. Then, cells from 2 ml of broth culture were harvested by centrifugation, and were washed with 1 ml of milliQ water three times. Then, washed cells were suspended in 1 ml of milliQ and were incubated at 70° C. for 10 min with a water bath to extract intracellular materials. After cell debris and the extract were separated by centrifugation, the aqueous phase was transferred to a clean vial and the vial was then vacuum-dried. Thus, a dried extract was prepared. Then, the amount of γ-Glu-Val-Gly in the dried extract was measured with LC-MS/MS analysis. The detailed procedures are described below.
# 1. Sample was dissolved in 100 μl of water, and then 100 μl of acetonitrile (MeCN) was added, and then centrifuged.
# 2. 190 μl of supernatant was transferred to a new tube and dried.
# 3. Pellet was dissolved in 40 μl of water.
# 4. For derivatization, 20 μl of the obtained solution was mixed with 60 μl of buffer and 80 μl of derivatization reagent, and incubated at 55° C. for 10 min.
# 5. After incubation, 200 μl of 0.1% solution of HCOOH in water was added to stop AQC derivatization reaction.
# 40 μl of the resultingsolution was taken for HPLC, and γ-Glu-Val-Gly in the elutants was analyzed with MS/MS detector.
# It was shown that the HGT1 gene is essential to transport γ-Glu-Val-Gly from the medium, but PTR2 is not.
smiles,measurement,setting,value
CC(C)[C@H](NC(=O)CC[C@H](N)C(=O)O)C(=O)NCC(=O)O [γ-Glu-Val-Gly],intracellular γ-Glu-Val-Gly,"Table 13, strain S288C hgt1Δ ptr2Δ",0.01 mg 1^−1 OD600^−1
same,intracellular γ-Glu-Val-Gly,"Table 13, strain S288C hgt1Δ",0.01 mg 1^−1 OD600^−1
same,intracellular γ-Glu-Val-Gly,"Table 13, strain S288C ptr2Δ",1.84 mg 1^−1 OD600^−1
same,intracellular γ-Glu-Val-Gly,"Table 13, strain S288C",1.93 mg 1^−1 OD600^−1
same,intracellular γ-Glu-Val-Gly,"Table 14, strain S288C PADH1-HGT1",28.6 mg 1^−1 OD600^−1
same,intracellular γ-Glu-Val-Gly,"Table 14, strain S288C PADH1-PTR2",2.6 mg 1^−1 OD600^−1
same,intracellular γ-Glu-Val-Gly,"Table 14, strain S288C",3.3 mg 1^−1 OD600^−1

# — patent US9034403B2, “Yeast extract containing γ-Glu-X or γ-Glu-X-Gly and a method for producing the same” (AJINOMOTO CO., INC., priority 2010, dated 2015)
